ChEMBL document CHEMBL1128865, “A systematic study of P1P3 spanning sidechains for the inhibition of HIV-1 protease” (Bioorg Med Chem Lett, 1995)

biological target: Human immunodeficiency virus type 1 protease (Human immunodeficiency virus 1, UniProt Q72874); experiment: Inhibitory activity against HIV-1 protease; settings: not given

Row | SMILES | IC50 [nM]
1 | CC(C)(C)NC(=O)c1ccccc1C[C@@H](O)[C@H](CSc1ccc2ccccc2c1)NC(=O)[C@H](CC(N)=O)NC(=O)OCc1ccccc1 | 1.5
2 | CC(C)(C)NC(=O)c1ccccc1C[C@@H](O)[C@H](CSc1ccc2ccccc2c1)NC(=O)CCC(N)=O | > 80
3 | CC(=O)N[C@@H](CC(N)=O)C(=O)N[C@@H](CSc1ccccc1)[C@H](O)Cc1ccccc1C(=O)NC(C)(C)C | 19
4 | CC(=O)N[C@@H](CC(N)=O)C(=O)N[C@@H](CSc1ccc2ccccc2c1)[C@H](O)Cc1ccccc1C(=O)NC(C)(C)C | 1.1
5 | CC(C)(C)NC(=O)c1ccccc1C[C@@H](O)[C@H](CSc1ccccc1)NC(=O)[C@H](CC(N)=O)NC(=O)OCc1ccccc1 | 14
6 | CC(C)(C)NC(=O)c1ccccc1C[C@@H](O)[C@H](CSc1ccccc1)NC(=O)[C@H](CC(N)=O)NC(=O)c1ccc2ccccc2n1 | 1.1
7 | CC(C)(C)NC(=O)c1ccccc1C[C@@H](O)[C@H](CSc1ccccc1)NC(=O)CCC(N)=O | > 150
8 | CC(C)(C)NC(=O)[C@@H]1C[C@@H]2CCCC[C@@H]2CN1C[C@@H](O)[C@H](CSc1ccccc1)NC(=O)[C@H](CC(N)=O)NC(=O)c1ccc2ccccc2n1 | 1.5
9 | CC(C)(C)NC(=O)[C@@H]1C[C@@H]2CCCC[C@@H]2CN1C[C@@H](O)[C@H](CSc1ccc2ccccc2c1)NC(=O)[C@H](CC(N)=O)NC(=O)c1ccc2ccccc2n1 | < 0.25
10 | CC(C)(C)NC(=O)c1ccccc1C[C@@H](O)[C@H](CSc1ccc2ccccc2c1)NC(=O)[C@H](CC(N)=O)NC(=O)c1ccc2ccccc2n1 | < 0.25

system: CCRF-CEM; experiment: Concentration required for inhibitory activity against CEM cells in a whole cell assay.; format: functional; settings: Homo sapiens, read-out: ED50 (the source's name)

Row | SMILES | EC50 [nM]
11 | CC(C)(C)NC(=O)c1ccccc1C[C@@H](O)[C@H](Cc1ccccc1)NC(=O)[C@H](CC(N)=O)NC(=O)c1ccc2ccccc2n1 | 23

system: CCRF-CEM; experiment: Concentration required for inhibitory activity against CEM cells in a whole cell assay; format: functional; settings: Homo sapiens, read-out: ED50 (the source's name)

Row | SMILES | EC50 [nM]
12 | CC(C)(C)NC(=O)[C@@H]1C[C@@H]2CCCC[C@@H]2CN1C[C@@H](O)[C@H](Cc1ccccc1)NC(=O)[C@H](CC(N)=O)NC(=O)c1ccc2ccccc2n1 | 1.5
13 | CC(C)(C)NC(=O)[C@@H]1C[C@@H]2CCCC[C@@H]2CN1C[C@@H](O)[C@H](CSc1ccccc1)NC(=O)[C@H](CC(N)=O)NC(=O)c1ccc2ccccc2n1 | 1.3
14 | CC(C)(C)NC(=O)[C@@H]1C[C@@H]2CCCC[C@@H]2CN1C[C@@H](O)[C@H](CSc1ccc2ccccc2c1)NC(=O)[C@H](CC(N)=O)NC(=O)c1ccc2ccccc2n1 | 1.4
